The source of these data is ChEMBL document CHEMBL3351947, “Isolation of pyrrolocins A-C: cis- and trans-decalin tetramic acid antibiotics from an endophytic fungal-derived pathway” (J Nat Prod, 2014).

Test [1] relates to Mycobacterium tuberculosis. Description: Antimicrobial activity against Mycobacterium tuberculosis H37Ra after 4 days by MTT assay. As to conditions: 96 h. The class given is functional, organism-based. (Tetrazolium dyes change colour on reduction, which living cells bring about.)
The nature of test [2]: Cytotoxicity against human CEM-TART cells after 4 days by MTT assay. Particulars: 96 h. The class given is cell-based.

In general, IC50 refers to the concentration needed to halve the response being measured.

For `CC1=C[C@H]2C[C@@H](C)CC[C@@H]2[C@@](C)(C(=O)C2=C(O)[C@@H](CO)NC2=O)[C@H]1/C=C/C=C/C[C@@H](C)O`, the figures for the IC50 in test [1] and in test [2] were 56.4 µM and 113 µM, respectively.

Regarding `CC1=C[C@H]2C[C@@H](C)CC[C@@H]2[C@@](C)(C(=O)C2=C(O)[C@@H](CO)N(C)C2=O)[C@H]1/C=C/C=C/C[C@@H](C)O`, the values for the IC50 in test [1] and in test [2] were 26.3 µM and 76.6 µM, respectively. In the same order, the values of `CC1=C[C@@H]2C[C@@H](C)CC[C@@H]2[C@@](C)(C(=O)C2=C(O)[C@@H](CO)NC2=O)[C@@H]1/C=C/C=C/C[C@@H](C)O` are 113 µM and 167 µM.

The compound `CO[C@H]1/C=C/O[C@@]2(C)Oc3c(C)c(O)c4c(O)c(c(/C=N/N5CCN(C)CC5)c(O)c4c3C2=O)NC(=O)/C(C)=C\C=C\[C@H](C)[C@H](O)[C@@H](C)[C@@H](O)[C@@H](C)[C@H](OC(C)=O)[C@@H]1C` [RIFAMPIN] yielded an IC50 in test [1] of 0.152 µM.
